Where “and” joins values, the source holds several entries; their conditions need not be identical. Identical values can stand only once. Like-named read-outs stand apart in the source and are kept apart here. No end group written: not given here.
Assays:
E. faecium LMG11423 = type: cell-based, Enterococcus faecium
Experimental: (§1) MIC was evaluated by broth microdilution according to the standard guidelines ([45]). Briefly, the test medium was cation-adjusted Mueller-Hinton broth (MHB). Cell concentration was adjusted to approximately 5 × 10^5 cells per ml. After 20 h of incubation at 37°C, the MIC was defined as the lowest concentration of antibiotic with no visible growth. Each experiment was performed in triplicates.

[1] = tested on: E. faecium ATCC TX0133a04; type: cell-based, Enterococcus faecium
Experimental: as §1

[2] = tested on: E. faecium ATCC E1321 (AGRE); type: cell-based, Enterococcus faecium
Experimental: as §1

[3] = tested on: E. faecium ATCC E1162 (ARE); type: cell-based, Enterococcus faecium
Experimental: as §1

[4] = tested on: E. faecium ATCC HF50105 (ETVRE); type: cell-based, Enterococcus faecium
Experimental: as §1

E. faecium 4Tom19 = type: cell-based, Enterococcus faecium
Experimental: as §1

[5] = tested on: E. faecium LMG16003 (VRE); type: cell-based, Enterococcus faecium
Experimental: as §1

[6] = tested on: E. faecium ATCC TX0082 (AEKVRE); type: cell-based, Enterococcus faecium
Experimental: as §1

E. faecium 6Tom18 = type: cell-based, Enterococcus faecium
Experimental: as §1

S. aureus LMG10147 = type: cell-based, Staphylococcus aureus
Experimental: as §1

Escherichia coli GSK 12 = experiment: MIC by broth microdilution; type: cell-based; conditions: cation-adjusted MHB, approx. 5 × 10^5 cells per ml, 20 h, 37°C, triplicates
Experimental: as §1

[7] = tested on: E. faecium (LMG16003; vancomycin-resistant strain); experiment: Time-kill assay; type: cell-based, Enterococcus faecium; conditions: MHB, 37°C, CFU counts, triplicates
Experimental: This assay was performed according to a previously described procedure ([29]). An overnight culture of cells (Enterococcus faecium LMG 16003; vancomycin-resistant strain) was diluted 50-fold in MHB and incubated at 37°C with aeration at 220 rpm. Bacteria were grown to an OD of 0.5, and then the cell concentration was adjusted to ≈5 × 10^5 cells per ml. Bacteria were then challenged with nisin (20 μM), nisin(1-22) (600 μM), or TL19 (10 μM) in culture tubes at 37°C and 220 rpm. (peptides at 10× MIC, a desirable concentration at the site of infection). Bacteria not treated with peptides were used as a negative control. At desired time points, 100-μl aliquots were taken, centrifuged at 8,000 × g for 2 min, and resuspended in 100 μl of MHB. Ten-fold serially diluted samples were plated on Mueller-Hinton agar (MHA) plates. After incubating at 37°C overnight, colonies were counted and CFU per milliliter was calculated. Each experiment was performed in triplicates.

B. cereus ATCC 14579 = type: cell-based, Bacillus cereus
Experimental: as §1

B. cereus ATCC 10987 = type: cell-based, Bacillus cereus
Experimental: as §1

[8] = tested on: E. faecium LMG16003 cells; experiment: Propidium iodide assay for membrane pore formation; type: cell-based, Enterococcus faecium; conditions: peptide 3 μM, propidium iodide 2.5 μg per ml, monitored for 3 h, excitation 533 nm, emission 617 nm
Experimental: The excitation and emission wavelengths on the fluorescence spectrometer were adjusted to 533 nm and 617 nm, respectively. E. faecium LMG16003 was grown to an OD600 of 0.6. To this cell suspension, propidium iodide (final concentration, 2.5 μg per ml) was added and incubated for 5 min. Peptides were added to a final concentration of 3 μM. Fluorescence was monitored for 3 h, with the peptide added after ∼60 s.

[9] = tested on: E. faecalis LMG16216 (VRE); type: cell-based, Enterococcus faecalis
Experimental: as §1

E. faecalis LMG8222 = type: cell-based, Enterococcus faecalis
Experimental: as §1

E. faecalis LMGV583 = type: cell-based, Enterococcus faecalis
Experimental: as §1

A. baumannii LMG01041 = type: cell-based, Acinetobacter baumannii
Experimental: as §1

E. faecium LMG16003 [10] = experiment: Antimicrobial activity of TL19 mutants (agar spot assay, Fig. 5d); type: cell-based, Enterococcus faecium; conditions: 1 nmol peptide, after removal of the leader peptide with NisP (Fig. 5d)
Description: A highly conserved glutamate in HalA1 (Glu22) is essential for binding to its target lipid II ([12], [15], [16]). Mutating the glutamate residue in the CTLTXEC motif to alanine or glutamine completely abolished antibacterial activity ([15]). […] Therefore, either Glu34 in TL19 was mutated to Ala, Thr2 in TL19 was mutated to Asp, or both mutations were installed together in the same TL19 variant. […] NisC-catalyzed cyclization of the mutated peptides was investigated using CDAP treatment under reducing conditions followed by MS analysis.
FIG 5 Importance of both lipid II binding motifs for antimicrobial activity against E. faecium LMG16003. MALDI-TOF MS data of TL19 or TL19 mutants before (blue) and after (red) treated with CDAP. (a) TL19 (2Asp); (b) TL19 (34Ala); (c) TL19 (2Asp, 34Ala). (d) Antimicrobial activity for TL19 mutants against E. faecium LMG16003: 1, TL19 (1 nmol); 2, TL19 (2Asp) (1 nmol); 3, TL19 (34Ala) (1 nmol); 4, TL19 (2Asp, 34Ala) (1 nmol); 5, TL19 (2Asp) (1 nmol) plus TL19 (34Ala) (1 nmol); 6, negative control (buffer).

[11] = tested on: E. faecium ATCC U0317 (ACRE); experiment: MIC by broth microdilution; type: cell-based, Enterococcus faecium; conditions: cation-adjusted MHB, approx. 5 × 10^5 cells per ml, 20 h, 37°C, triplicates
Experimental: as §1

E. faecium = experiment: MIC comparison across E. faecium strains; type: cell-based, Enterococcus faecium; conditions: from MIC values; for higher antibacterial activity than nisin(1-22): antibiotic-resistant E. faecium
Experimental: as §1

Micrococcus flavus = experiment: Screening of antibacterial activity by spot-on-lawn assay; type: cell-based; conditions: TCA-precipitated peptide 5 μl plus 1 μl NisP, GM17 0.8% agar, 30°C overnight (Fig. S1)
Experimental: To assess the antibacterial activity of TCA-precipitated samples on a agar plate, an overnight culture of Micrococcus flavus was added to the GM17 containing 0.8% (wt/vol) agar (at 42°C), and then the mixture was poured onto the plates, 30 ml per plate. After that, 5 μl of the peptides together with 1 μl of NisP were added to the plates, and the plates were transferred to the 30°C incubator for incubation overnight.

E. faecium LMG16003 [12] = experiment: Spot-on-lawn assay to measure peptide-lipid II complex formation; type: cell-based, Enterococcus faecium; conditions: peptide 1 nmol, either lipid II-lys or lipid II-dap
Experimental: An overnight cultured E. faecium LMG16003 was added to 0.8% MHA (wt/vol; temperature, 42°C) at a final concentration of 0.1% (vol/vol), and then the mixture was poured onto the plates (30 ml for each). Binding of peptide and lipid II was further evaluated by incubating purified lipid II with peptide in various molar ratios ranging from 0.5 to 2 with respect to the peptides (1 nmol). Subsequently, a spot-on-lawn assay was used to analyze the antimicrobial activity. After the lipid II solution drops with peptide had dried, the plates were transferred to the 37°C incubator for overnight incubation.

[13] = Complex formation with lipid II by thin-layer chromatography; type: binding; conditions: TLC, lipid II-lys or lipid II-dap (Fig. 4b1 and b2), 4 nmol, 30 min at 25°C
Experimental: Purified lipid II-lys or lipid II-dap (4 nmol) was incubated in chloroform-methanol-water (2:3:1), in the presence of increasing TL19 concentrations (TL19/lipid II molar ratios ranging from 0.3 to 2:1) in a total volume of 30 μl. After incubating for 30 min at 25°C, the mixture was analyzed by thin-layer chromatography using chloroform-methanol-water-ammonia (88:48:10:1), and the spots were visualized by iodine vapor ([20], [26]).

[14] = broth microdilution, cation-adjusted MHB, approx. 5 × 10^5 cells per ml, 20 h, 37°C, triplicates

C=C1NC(=O)[C@H]([C@@H](C)CC)NC(=O)[C@H](NC(=O)/C(=C/C)NC(=O)[C@@H](N)[C@@H](C)CC)CSC[C@@H](C(=O)N[C@H]2C(=O)N3CCC[C@H]3C(=O)NCC(=O)N[C@H](C(=O)N[C@@H](CCCCN)C(=O)N[C@H]3C(=O)NCC(=O)N[C@@H](C)C(=O)N[C@@H](CC(C)C)C(=O)N[C@@H](CCSC)C(=O)NCC(=O)N[C@H](C(=O)N[C@@H](CC(N)=O)C(=O)N[C@@H](CCSC)C(=O)N[C@@H](CCCCN)C(=O)O)CS[C@H]3C)CS[C@H]2C)NC(=O)[C@H](CC(C)C)NC1=O [Nisin(1-22), reference compound]
MIC (E. faecium LMG11423; LMG11423, 20 h): 60 µM
MIC (E. faecium LMG11423; [14]): 128 µg/mL
MIC ([1]; ATCC TX0133, 20 h): 60 µM
MIC [1, 14]: 128 µg/mL
MIC ([2]; ATCC E1321, 20 h): 60 µM
MIC [2, 14]: 128 µg/mL
MIC ([3]; ATCC E1162, 20 h): > 60 µM
MIC [3, 14]: > 128 µg/mL
MIC ([4]; ATCC HF50105, 20 h): 30 µM
MIC [4, 14]: 64 µg/mL
MIC (E. faecium 4Tom19; 4Tom19, 20 h): 60 µM
MIC (E. faecium 4Tom19; [14]): 128 µg/mL
MIC ([5]; LMG16003, 20 h): 60 µM
MIC [5, 14]: 128 µg/mL
MIC ([6]; ATCC TX0082, 20 h): 60 µM
MIC [6, 14]: 128 µg/mL
MIC (E. faecium 6Tom18; 6Tom18, 20 h): 30 µM
MIC (E. faecium 6Tom18; [14]): 64 µg/mL
MIC (S. aureus LMG10147; LMG10147, 20 h): 15 µM
MIC (S. aureus LMG10147; [14]): 32 µg/mL
MIC (Escherichia coli GSK 12): > 128 µg/mL
effect on population of viable cells within 11 h postexposition ([7]; 10× MIC: nisin(1-22) 600 μM): did not reduce the population of viable cells
killing in 48 h ([7]; 10× MIC: nisin(1-22) 600 μM): only slight killing was observed
MIC (B. cereus ATCC 14579; ATCC 14579, 20 h): 30 µM
MIC (B. cereus ATCC 14579; [14]): 64 µg/mL
MIC (B. cereus ATCC 10987; ATCC 10987, 20 h): > 60 µM
MIC (B. cereus ATCC 10987; [14]): > 128 µg/mL
pore formation (propidium iodide fluorescence increase) [8]: neither TL19 nor nisin(1-22) caused any fluorescence increase
MIC ([9]; LMG16216, 20 h): > 60 µM
MIC [9, 14]: > 128 µg/mL
MIC (E. faecalis LMG8222; LMG8222, 20 h): > 60 µM
MIC (E. faecalis LMG8222; [14]): > 128 µg/mL
MIC (E. faecalis LMGV583; LMGV583, 20 h): > 60 µM
MIC (E. faecalis LMGV583; [14]): > 128 µg/mL
MIC (A. baumannii LMG01041; LMG01041, 20 h): > 60 µM
MIC (A. baumannii LMG01041; [14]): > 128 µg/mL

IDSISLCTPGCKTGALMGCNMKTATCHYCTLTVACMPSCN [TL19 (2Asp, 34Ala)]
antimicrobial activity relative to TL19 (E. faecium LMG16003 [10]): decreased or completely abolished the antimicrobial activity

IDSISLCTPGCKTGALMGCNMKTATCHYCTLTVECMPSCN [TL19 (2Asp), TL19 variant in which Thr2 was mutated to Asp]
antimicrobial activity relative to TL19 (E. faecium LMG16003 [10]): almost abolished the antimicrobial activity

ITSISLCTPGCKTGALMGCNMKTATCHCTLTVECMPSCN (also: bicyclic or more (positions not given here)) [TL17, incompletely modified, not all rings formed]
MIC [11]: 7.5 μM and 29 μg/ml
MIC (Escherichia coli GSK 12): > 15 μM and > 58 μg/ml
higher antibacterial activity than nisin(1-22) (E. faecium): 16 fold
antimicrobial activity against Micrococcus flavus (Micrococcus flavus): potent antimicrobial activity

ITSISLCTPGCKTGALMGCNMKTATCHYCTLTVACMPSCN [TL19 (34Ala)]
antimicrobial activity relative to TL19 (E. faecium LMG16003 [10]): severely reduced the antimicrobial activity

ITSISLCTPGCKTGALMGCNMKTATCHYCTLTVECMPSCN (also: bicyclic or more (positions not given here)) [TL19, lantibiotic with seven thioether rings]
MIC [11]: 1.9 μM and 7.6 μg/ml
MIC (Escherichia coli GSK 12): > 15 μM and > 60 μg/ml
time to complete killing ([7]; 10× MIC: nisin 20 μM, TL19 10 μM, ≈5 × 10^5 cells per ml): 24 h
pore formation (propidium iodide fluorescence increase) [8]: neither TL19 nor nisin(1-22) caused any fluorescence increase
higher antibacterial activity than TL17 (E. faecium; E. faecium): 4 fold
higher antibacterial activity than nisin(1-22) (E. faecium): 64 fold
antibacterial activity upon addition of lipid II at a 1:1 (peptide/lipid II) ratio (E. faecium LMG16003 [12]): still showed potent antibacterial activity
antimicrobial activity against Micrococcus flavus (Micrococcus flavus): potent antimicrobial activity
lipid II migration at a low ratio (0.3:1) of TL19 to lipid II [13]: lipid II migration was significantly inhibited
